Where a SMILES comes first, the peptide text is derived from it.

This assay concerns the target T1, β-catenin (Homo sapiens, UniProt P35222).
T1 sequence (P35222 1-781): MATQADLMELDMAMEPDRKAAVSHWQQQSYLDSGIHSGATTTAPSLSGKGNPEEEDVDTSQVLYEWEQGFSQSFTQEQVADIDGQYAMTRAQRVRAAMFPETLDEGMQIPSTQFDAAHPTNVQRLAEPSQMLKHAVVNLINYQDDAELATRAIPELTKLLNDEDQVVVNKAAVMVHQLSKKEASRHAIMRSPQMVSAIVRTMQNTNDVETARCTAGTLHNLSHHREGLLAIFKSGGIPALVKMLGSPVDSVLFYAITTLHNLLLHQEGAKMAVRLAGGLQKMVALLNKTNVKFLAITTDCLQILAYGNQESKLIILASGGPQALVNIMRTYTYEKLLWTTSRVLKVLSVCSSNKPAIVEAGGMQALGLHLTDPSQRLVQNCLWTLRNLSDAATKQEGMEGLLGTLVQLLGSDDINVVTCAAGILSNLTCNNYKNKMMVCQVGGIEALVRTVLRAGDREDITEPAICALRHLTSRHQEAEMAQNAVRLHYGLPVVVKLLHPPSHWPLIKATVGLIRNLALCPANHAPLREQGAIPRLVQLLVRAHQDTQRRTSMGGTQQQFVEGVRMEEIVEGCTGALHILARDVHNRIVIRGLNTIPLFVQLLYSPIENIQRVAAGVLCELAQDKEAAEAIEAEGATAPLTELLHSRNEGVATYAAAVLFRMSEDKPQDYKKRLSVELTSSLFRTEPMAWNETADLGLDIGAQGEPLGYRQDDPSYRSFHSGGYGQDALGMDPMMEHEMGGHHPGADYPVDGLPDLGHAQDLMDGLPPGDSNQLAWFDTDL
Nature of the assay: KD50 measurement using competitive fluorescence polarization (FP) with labelled TCF4. Format: binding. As to conditions: fluorescence polarization, β-catenin; for Kd: read-out: β-Cat FP KD. The text has this:
Fluorescence polarization (FP) is another method used to analyze protein-ligand interactions. This methodology measures the change in fluorescence light emitted by a labelled compound free vs. conjugated to another compound in solution. Upon binding of the fluorescent molecule to a complex, polarization increases because of limited rotation of the fluorescent tracer. Competitive FP is often utilized in drug screens as it is formatted for high throughput screens in a plate format. This immunoassay is performed by introducing a non-conjugated drug to compete for binding to the labelled competitor-ligand complex, leading to a reduction in polarization. TCF4 protein is utilized for the competitive assay as (1) this protein influences the full activation of the Wnt pathway and (2) shares homology with the β-catenin inhibitors. Exemplary methodology is described in Example 13. Data were analyzed and plotted in Microsoft Excel (Microsoft, Redmond, WA).
5 nM of labelled TCF4 protein was added to solution of 100 nM of β-catenin and incubated at room temperature in 96-well plates (Greiner 96 Flat transparent plates, Millipore Sigma, Carlsbad CA). Varying concentrations of β-catenin inhibitor candidate (SEQ ID NO: 404) were then added in a series of serial dilutions from 10 nM to 30 uM of inhibitor in different wells of the plate. The fluorescence polarization was read by Infinite M1000 (Tecan, Baldwin Park CA) at excitation wavelength of 470 nm and measured at emission wavelength of 520 nm. […] The experiments were performed three times and data were analyzed and plotted in Microsoft Excel (Microsoft, Redmond, WA).
In general terms: Fluorescence polarisation rises when a labelled molecule tumbles more slowly, as on binding a larger partner.

On to `CCCCCCCCCCCC(=O)N[C@@H](Cc1c[nH]c2ccccc12)C(=O)N1CCC[C@H]1C(=O)N[C@@H](CCC(N)=O)C(=O)N[C@@H](CO)C(=O)N[C@H](C(=O)N[C@@H](CC(C)C)C(=O)N[C@@H](CC(=O)O)C(=O)N[C@H]1CCC(=O)NCCCC[C@@H](C(=O)N[C@H](C(=O)N[C@@H](Cc2c[nH]c3ccccc23)C(=O)NCC(N)=O)C(C)C)NC(=O)[C@H](CCC(N)=O)NC(=O)[C@H](C2CCCCC2)NC(=O)[C@H](Cc2c[nH]cn2)NC1=O)[C@@H](C)CC` [compound 473] (HELM PEPTIDE1{[CCCCCCCCCCCC(=O)[*:2]].W.P.Q.S.I.L.D.E.H.[O=C([C@@H](N[*:1])C1CCCCC1)[*:2]].Q.K.V.W.G.[am]}$PEPTIDE1,PEPTIDE1,9:R3-13:R3$$$V2.0), for which the Kd was less than 400 nM. As for `CC[C@H](C)[C@@H]1NC(=O)[C@@H](NC(=O)C(C)(C)NC(=O)[C@H](C)N(C)C(=O)[C@@H](N)Cc2c[nH]c3ccccc23)CCCCNC(=O)CC[C@@H](C(=O)N[C@@H](Cc2c[nH]cn2)C(=O)N[C@H](C(=O)N[C@@H](CCC(N)=O)C(=O)N[C@@H](CCCNC(=N)N)C(=O)N[C@H](C(=O)N[C@@H](Cc2c[nH]c3ccccc23)C(=O)NCC(N)=O)C(C)C)C2CCCCC2)NC(=O)[C@H](CC(=O)O)NC(=O)[C@H](CC(C)C)NC1=O` [compound 417] (HELM PEPTIDE1{W.[meA].[Aib].K.I.L.D.E.H.[O=C([C@@H](N[*:1])C1CCCCC1)[*:2]].Q.R.V.W.G.[am]}$PEPTIDE1,PEPTIDE1,4:R3-8:R3$$$V2.0), the “β-Cat FP Hill slope” value was found to be 0.93 and the Kd was less than 400 nM. The like results for `CC[C@H](C)[C@H](NC(=O)[C@H](C)NC(=O)[C@H](Cc1ccccc1)NC(=O)[C@H](Cc1c[nH]c2ccccc12)NC(=O)[C@@H](N)CCSC)C(=O)N[C@@H](CO)C(=O)N[C@@H](Cc1ccccc1)C(=O)N[C@@H](Cc1c[nH]c2ccccc12)C(=O)NCC(=O)O` [compound 12] (H-MWFAISFWG-OH) were, in that order, 0.5 and 1000 to 10000 nM. For `CCCCCCCCCCCC(=O)N[C@@H](Cc1c[nH]c2ccccc12)C(=O)N1CCC[C@H]1C(=O)N[C@@H](CCC(N)=O)C(=O)N[C@@H](CO)C(=O)N[C@H](C(=O)N[C@@H](CC(C)C)C(=O)N[C@@H](CC(=O)O)C(=O)N[C@H]1CCC(=O)NCCCC[C@@H](C(=O)N[C@H](C(=O)N[C@@H](Cc2c[nH]c3ccccc23)C(N)=O)C(C)C)NC(=O)[C@H](CCC(N)=O)NC(=O)[C@H](C2CCCCC2)NC(=O)[C@H](Cc2c[nH]cn2)NC1=O)[C@@H](C)CC` [compound 469] (HELM PEPTIDE1{[CCCCCCCCCCCC(=O)[*:2]].W.P.Q.S.I.L.D.E.H.[O=C([C@@H](N[*:1])C1CCCCC1)[*:2]].Q.K.V.W.[am]}$PEPTIDE1,PEPTIDE1,9:R3-13:R3$$$V2.0), the Kd is less than 400 nM. For the compound `CC[C@H](C)[C@@H]1NC(=O)[C@H](CC(C)C)NC(=O)[C@H](Cc2ccccc2)NC(=O)[C@H](Cc2c[nH]c3ccccc23)NC(=O)[C@@H](N)CCCCNC(=O)CC[C@@H](C(=O)N[C@@H](Cc2ccccc2)C(=O)N[C@@H](Cc2c[nH]c3ccccc23)C(=O)NCC(=O)O)NC1=O` [compound 229] (HELM PEPTIDE1{K.W.F.L.I.E.F.W.G}$PEPTIDE1,PEPTIDE1,1:R3-6:R3$$$V2.0), the “β-Cat FP Hill slope” value came to 0.43 and the Kd fell in the range of 1000 to 10000 nM. On to `CC[C@H](NC(=O)[C@@H](NC(=O)[C@H](CC(C)C)NC(=O)[C@H](CC1CCCCC1)NC(=O)[C@H](Cc1c[nH]c2ccccc12)NC(=O)[C@H](CCCCN)NC(=O)COCCOCCNC(=O)[C@H](CCCNC(=N)N)NC(=O)[C@H](CCCNC(=N)N)NC(=O)[C@H](CCCNC(=N)N)NC(=O)[C@H](CCC(N)=O)NC(=O)[C@H](CCCNC(=N)N)NC(=O)[C@H](CCCNC(=N)N)NC(=O)[C@H](CCCCN)NC(=O)[C@H](CCCCN)NC(=O)[C@@H](N)CCCNC(=N)N)[C@@H](C)CC)C(=O)N[C@@H](C)C(=O)N[C@@H](Cc1c[nH]c2ccccc12)C(=O)N[C@@H](CC(=O)O)C(=O)O` [282/493] (HELM PEPTIDE1{R.K.K.R.R.Q.R.R.R.[O=C(COCCOCCN[*:1])[*:2]].K.W.[Cha].L.I.[Abu].A.W.D}$$$$V2.0), for which the “β-Cat FP Hill slope” value turned out to be 0.77. As to `CC[C@H](C)[C@H](NC(=O)[C@H](CO)NC(=O)[C@H](CCC(N)=O)NC(=O)[C@@H]1CCCN1C(=O)[C@H](Cc1c[nH]c2ccccc12)NC(C)=O)C(=O)N[C@@H](CC(C)C)C(=O)N[C@@H](CC(=O)O)C(=O)N[C@H]1CCC(=O)NCCCC[C@@H](C(=O)N[C@H](C(=O)N[C@@H](Cc2c[nH]c3ccccc23)C(N)=O)C(C)C)NC(=O)[C@H](CCC(N)=O)NC(=O)[C@H](C2CCCCC2)NC(=O)[C@H](Cc2c[nH]cn2)NC1=O` [compound 468] (HELM PEPTIDE1{[ac].W.P.Q.S.I.L.D.E.H.[O=C([C@@H](N[*:1])C1CCCCC1)[*:2]].Q.K.V.W.[am]}$PEPTIDE1,PEPTIDE1,9:R3-13:R3$$$V2.0), the “β-Cat FP Hill slope” value was 0.86 and the Kd is less than 400 nM. Take `CC[C@H](C)[C@H](NC(=O)[C@H](CO)NC(=O)[C@H](CCC(N)=O)NC(=O)[C@H](C)N(C)C(=O)[C@H](Cc1c[nH]c2ccccc12)NC(C)=O)C(=O)N[C@@H](CC(C)C)C(=O)N[C@@H](CC(=O)O)C(=O)N[C@H]1CCCCNC(=O)C[C@@H](C(=O)N[C@H](C(=O)N[C@@H](Cc2c[nH]c3ccccc23)C(N)=O)C(C)C)NC(=O)[C@H](CCC(N)=O)NC(=O)[C@H](C2CCCCC2)NC(=O)[C@H](Cc2c[nH]cn2)NC1=O` [compound 460] (HELM PEPTIDE1{[ac].W.[meA].Q.S.I.L.D.K.H.[O=C([C@@H](N[*:1])C1CCCCC1)[*:2]].Q.D.V.W.[am]}$PEPTIDE1,PEPTIDE1,9:R3-13:R3$$$V2.0): the “β-Cat FP Hill slope” value was determined as 0.7 and the Kd was less than 400 nM. Turning to `CC[C@H](C)[C@H](NC(=O)[C@H](CC(=O)O)NC(=O)[C@H](CCCNC(=N)N)NC(=O)[C@H](CC(C)C)NC(=O)[C@@H](NC(=O)[C@H](CCC(N)=O)NC(=O)[C@H](CC(C)C)NC(=O)[C@H](CO)NC(=O)[C@H](CCCNC(=N)N)NC(=O)[C@H](CCC(=O)O)NC(=O)[C@H](CCCNC(=N)N)NC(=O)[C@H](Cc1c[nH]cn1)NC(=O)[C@H](CCC(=O)O)NC(=O)[C@H](CC(C)C)NC(=O)[C@H](CCC(N)=O)NC(=O)[C@H](CCC(=O)O)NC(=O)[C@H](CCC(N)=O)NC(=O)[C@H](CO)NC(=O)[C@H](CC(C)C)NC(=O)CNC(=O)[C@H](CC(=O)O)NC(=O)[C@@H]1CCCN1C(=O)[C@H](CC(N)=O)NC(C)=O)[C@@H](C)O)C(=O)N[C@@H](CCC(N)=O)C(=O)N[C@@H](CCCNC(=N)N)C(=O)N[C@@H](CCSC)C(=O)N[C@@H](CC(C)C)C(=O)N[C@@H](Cc1ccccc1)C(=O)N1CCC[C@H]1C(=O)N[C@@H](CC(=O)O)C(=O)N[C@@H](CCC(=O)O)C(=O)N[C@@H](CCCCN)C(=O)N[C@@H](CCC(=O)O)C(=O)N[C@@H](Cc1ccccc1)C(=O)N[C@H](C(=O)NCCC(=O)NCCC(=O)N[C@@H](CCCCN)C(N)=O)[C@@H](C)O` [compound 270], the Kd is more than 30000 nM. On to `CC[C@H](C)[C@H](NC(=O)[C@H](CC(C)C)NC(C)=O)C(=O)N[C@@H](CO)C(=O)N[C@@H](Cc1ccccc1)C(=O)N[C@@H](Cc1c[nH]c2ccccc12)C(=O)NCC(=O)O` [compound 238] (Ac-LISFWG-OH), for which the “β-Cat FP Hill slope” value came to 0.7 and the Kd fell in the range of 10000 to 30000 nM. Turning to `CC[C@H](C)[C@@H]1NC(=O)[C@H](CC(C)C)NC(=O)[C@H](Cc2ccccc2)NC(=O)[C@H](Cc2c[nH]c3ccccc23)NC(=O)[C@@H](N)CCCCNC(=O)CCCNC(=O)C[C@@H](C(=O)O)NC(=O)[C@H](Cc2c[nH]c3ccccc23)NC(=O)[C@H](C)NC(=O)[C@H](CS)NC1=O` [compound 247] (HELM PEPTIDE1{K.W.F.L.I.C.A.W.[O=C(O)[C@H](CC(=O)[*:2])N[*:1]].[O=C(CCCN[*:1])[*:2]]}$PEPTIDE1,PEPTIDE1,1:R3-10:R2$$$V2.0), the “β-Cat FP Hill slope” value was found to be 2.34 and the Kd was less than 400 nM.

Broadly, the Kd is the equilibrium constant for the complex coming apart.

The values are drawn from patent publication US12441768B2, “Compositions and methods for treating endometriosis” (EndoMet Biosciences, Inc., priority 2018, dated 2025).
